Where two headings read alike, the source gives them in different places. Square brackets hold non-standard residues; d marks the D form. Ends that are not written are not given here. Peptide text beside a SMILES is read from it. Cit = NC(=O)NCCC[C@H](N)C(=O)O
How the values were obtained:
[1] = molecular target: T1, HLA-DRB1*01:01 (Homo sapiens, UniProt P01903+P01911, A100R/D57E/F55L/F60I/F76Y/I96L/L162R/M171V/P40L/Q125E/R42F/V115G/Y59C); assay: HLA class II peptide binding, inhibition of radiolabeled peptide binding to purified MHC
T1 construct: EBV transformed homozygous cell lines were used as sources of MHC molecules; endogenous in cells; host or cells: EBV transformed homozygous cell lines

[2] = molecular target: T2, HLA-DRB1*04:01 (Homo sapiens, UniProt P01903+P01911, A100K/A169T/F76Y/I96L/K127E/L162R/M171V/N62H/P40V/Q125Y/R42H/S133A/S149N/S66Y/V115G/V209L/W38E); assay: as above
T2 construct: EBV transformed homozygous cell lines were used as sources of MHC molecules; endogenous in cells; host or cells: EBV transformed homozygous cell lines

[3] = citrullinated 15-mer (X), purified MHC, inhibition of radiolabeled peptide binding, dash = IC50 >40,000 nM, read-out: DRB1*01:01 binding capacity, Cit peptide (IC50 nM)
[4] = citrullinated 15-mer (X), purified MHC, inhibition of radiolabeled peptide binding, dash = IC50 >40,000 nM, read-out: DRB1*04:01 binding capacity, Cit peptide (IC50 nM)

| Compound | IC50 [1, 3] [nM] | IC50 [2, 4] [nM] | also measured |
| --- | --- | --- | --- |
| CSCC[C@H](NC(=O)[C@H](CCC(N)=O)NC(=O)[C@@H](NC(=O)[C@H](CC(N)=O)NC(=O)[C@H](C)N)C(C)C)C(=O)N[C@H](C(=O)N[C@@H](Cc1ccccc1)C(=O)N[C@@H](CC(C)C)C(=O)N[C@@H](CCCNC(N)=O)C(=O)N[C@@H](CC(C)C)C(=O)N[C@@H](CC(C)C)C(=O)N[C@@H](CO)C(=O)N[C@H](C(=O)N[C@@H](CCC(=O)O)C(=O)NCC(=O)O)[C@@H](C)O)[C@@H](C)O [ANVQMTFLXLLSTEG] (H-ANVQMTFL[Cit]LLSTEG-OH) | – | – | IC50 ([1]; citrullinated peptide as listed (X at Cit position), read-out: DRB1*01:01 binding capacity Cit peptide (IC50 nM)): 65 nM; IC50 ([2]; citrullinated peptide as listed (X at Cit position), read-out: DRB1*04:01 binding capacity Cit peptide (IC50 nM)): 1060 nM |
| N=C(N)NCCC[C@H](NC(=O)[C@H](CCC(=O)O)NC(=O)CNC(=O)[C@@H]1CCCN1C(=O)[C@H](Cc1ccccc1)NC(=O)CNC(=O)[C@H](CCCNC(N)=O)NC(=O)[C@H](CCC(=O)O)NC(=O)CNC(=O)[C@H](CCCNC(=N)N)NC(=O)[C@@H]1CCCN1C(=O)CN)C(=O)NCC(=O)N[C@@H](CO)C(=O)N1CCC[C@H]1C(=O)O [GPRGEXGFPGERGSP] (H-GPRGE[Cit]GFPGERGSP-OH) | – | – | IC50 ([1]; citrullinated 15-mer peptide (X = citrulline), purified HLA-DRB1*01:01, read-out: DRB1*01:01 binding capacity, Cit peptide (IC50 nM)): 18000 nM; IC50 ([2]; citrullinated 15-mer peptide (X = citrulline), purified HLA-DRB1*04:01, read-out: DRB1*04:01 binding capacity, Cit peptide (IC50 nM)): > 40000 nM |
| C[C@H](NC(=O)CNC(=O)[C@H](CCC(N)=O)NC(=O)[C@@H]1CCCN1C(=O)CNC(=O)[C@@H]1CCCN1C(=O)[C@@H]1CCCN1C(=O)CNC(=O)[C@H](CCCNC(N)=O)NC(=O)[C@@H]1CCCN1C(=O)CNC(=O)[C@@H]1CCCN1C(=O)[C@H](Cc1ccccc1)NC(=O)CNC(=O)[C@@H]1CCCN1)C(=O)O [PGFPGPXGPPGPQGA] (H-PGFPGP[Cit]GPPGPQGA-OH) | – | – | IC50 ([1]; citrullinated 15-mer peptide (X = citrulline), […], read-out: DRB1*01:01 binding capacity, Cit peptide (IC50 nM)): > 40000 nM; IC50 ([2]; citrullinated 15-mer peptide (X = citrulline), […], read-out: DRB1*04:01 binding capacity, Cit peptide (IC50 nM)): 37800 nM |
| CC[C@H](C)[C@H](NC(=O)[C@H](Cc1ccc(O)cc1)NC(=O)[C@H](CC(N)=O)NC(=O)[C@H](C)NC(=O)[C@H](Cc1ccccc1)NC(=O)[C@H](CCCNC(N)=O)NC(=O)[C@H](CC(=O)O)NC(=O)[C@H](CC(N)=O)NC(=O)[C@H](CC(C)C)NC(=O)[C@H](CCC(=O)O)NC(=O)[C@H](CCC(N)=O)NC(=O)[C@H](CC(C)C)NC(=O)[C@@H](N)CCC(=O)O)C(=O)N[C@@H](CC(=O)O)C(=O)N[C@@H](CCCCN)C(=O)O [ELQELNDXFANYIDK] | 295 | 26700 | – |
| CC(C)C[C@H](NC(=O)[C@H](C)NC(=O)[C@H](CO)NC(=O)CNC(=O)[C@H](CC(C)C)NC(=O)[C@H](CO)NC(=O)[C@H](Cc1ccc(O)cc1)NC(=O)[C@@H](NC(=O)[C@@H](N)CCCNC(=N)N)[C@@H](C)O)C(=O)N[C@@H](CCCNC(N)=O)C(=O)N1CCC[C@H]1C(=O)N[C@@H](CO)C(=O)N[C@H](C(=O)N[C@@H](CO)C(=O)N[C@@H](CCCNC(=N)N)C(=O)O)[C@@H](C)O [RTYSLGSALXPSTSR] (H-RTYSLGSAL[Cit]PSTSR-OH) | 14 | 1100 | – |
| MIRLGAPQTLVLLTL [Collagen 1 WT] | – | – | IC50 ([1]; wild-type (unmodified Arg) 15-mer peptide, purified HLA-DRB1*01:01, read-out: DRB1*01:01 binding capacity, WT peptide (IC50 nM)): 315 nM; IC50 ([2]; wild-type (unmodified Arg) 15-mer peptide, purified HLA-DRB1*04:01, read-out: DRB1*04:01 binding capacity, WT peptide (IC50 nM)): 7130 nM |

Second part, led by results:

| IC50 [1, 3] [nM] | IC50 [2, 4] [nM] | Compound | also measured |
| --- | --- | --- | --- |
| 53 | 4770 | CC(C)C[C@H](NC(=O)[C@H](C)NC(=O)[C@H](CO)NC(=O)CNC(=O)[C@H](CC(C)C)NC(=O)[C@H](CO)NC(=O)[C@H](Cc1ccc(O)cc1)NC(=O)[C@@H](NC(=O)[C@@H](N)CCCNC(N)=O)[C@@H](C)O)C(=O)N[C@@H](CCCNC(=N)N)C(=O)N1CCC[C@H]1C(=O)N[C@@H](CO)C(=O)N[C@H](C(=O)N[C@@H](CO)C(=O)N[C@@H](CCCNC(=N)N)C(=O)O)[C@@H](C)O [XTYSLGSALRPSTSR] (H-[Cit]TYSLGSALRPSTSR-OH) | – |
| 1310 | 8950 | CC(C)C[C@H](NC(=O)[C@H](CC(C)C)NC(=O)[C@H](CCCNC(N)=O)NC(=O)[C@@H](NC(=O)CNC(=O)[C@@H]1CCCN1C(=O)[C@@H](NC(=O)[C@H](CO)NC(=O)[C@H](CO)NC(=O)[C@@H](N)CCCNC(=N)N)C(C)C)C(C)C)C(=O)N[C@@H](CCC(N)=O)C(=O)N[C@@H](CC(=O)O)C(=O)N[C@@H](CO)C(=O)N[C@H](C(=O)N[C@@H](CC(=O)O)C(=O)O)C(C)C [RSSVPGVXLLQDSVD] (H-RSSVPGV[Cit]LLQDSVD-OH) | – |
| 3940 | 279 | CC(C)C[C@H](NC(=O)[C@H](CC(=O)O)NC(=O)[C@H](CC(C)C)NC(=O)[C@H](CCCNC(N)=O)NC(=O)[C@H](C)NC(=O)[C@H](CC(C)C)NC(=O)[C@H](CO)NC(=O)[C@H](C)NC(=O)[C@H](CC(N)=O)NC(=O)[C@H](CC(=O)O)NC(=O)[C@@H](NC(=O)[C@H](CC(=O)O)NC(=O)[C@H](CCC(N)=O)NC(=O)[C@H](CCCNC(=N)N)NC(=O)[C@@H](N)Cc1ccccc1)C(C)C)C(=O)O [FRQDVDNASLAXLDL] (H-FRQDVDNASLA[Cit]LDL-OH) | – |
